# Assay results as given in patent US8404706B2, “Opioid and opioid-like compounds and uses thereof” (Jenken Biosciences, Inc., priority 2002, dated 2013).
# pKi: −log10 of the molar value.
# Key:
# [1] = molecular target: σ1 (Homo sapiens, UniProt Q99720); details: cited from earlier work; for pKi: read-out: Ki (σ1-ligands)
# [2] = tested on: rats treated with lipopolysaccharide (LPS); assay: Mean arterial blood pressure (MAP) in LPS-treated rats; assay type: in vivo, Wistar-Kyoto (WKY) rats; details: 5 mg/Kg iv 30 min before LPS (10 mg/Kg iv); 6 h after LPS
# Protocol: (§1) Wistar-Kyoto (WKY) rats were anesthetized by intraperitoneal injection of urethane (1.2 g/kg). The trachea was cannulated to facilitate respiration and environmental temperature was maintained at 24° C. with an air-conditioning system. […] The left jugular vein was cannulated for the administration of drugs. Upon completion of the surgical procedure, cardiovascular parameters were allowed to stabilize for 30 min. After recording baseline hemodynamic parameters, animals were given norepinephrine [NE, 1 μg/kg intravenously (i.v.)], and 10 min later animals received vehicle (saline) or Escherichia coli lipopolysaccharide (LPS), 5-10 mg/kg, i.v. and were monitored for 360 min. The pressor responses to NE were reassessed every hour after vehicle or LPS injection. Prior to (i.e., at time 0) and every hour after vehicle or LPS, 0.5 mL of blood was taken to measure the changes in cytokine tumor necrosis factor-α (TNF-α), interleukin-10β (IL-10), and nitrate (an indicator of NO) (Yen, M. H. et al., Shock 14, 60-67, 2000). Any blood withdrawn was immediately replaced by the injection of an equal volume of saline (i.v.) in order to maintain the blood volume. The drug was administered i.v. 30 min. prior to and 30 min. after the injection of LPS. All hemodynamic and biochemical parameters were recorded for 6 hours in all animal groups.
# (§2) Compounds, XXV and XXVI (shown below), were tested according to the foregoing protocols. In the following tables, XXV or XXVI (5 mg/Kg, iv) was injected 30 min before LPS treatment (10 mg/Kg, iv) unless otherwise indicated. In all experiments, at least six rats were tested. All measurements were performed 6 h after LPS injection unless otherwise indicated. The inhibitory effects of the compounds tested were described as a percentage of protection or inhibition with respect to the change in LPS-treated animals as compared to the control animals.
# [3] = tested on: rats treated with lipopolysaccharide (LPS); assay: Heart rate in LPS-treated rats; assay type: in vivo, Wistar-Kyoto (WKY) rats; details: 5 mg/Kg iv 30 min before LPS (10 mg/Kg iv); 6 h after LPS
# Protocol: as §1, §2
# [4] = tested on: Superoxide; assay: Superoxide in LPS-treated rats; assay type: in vivo; details: 6 h after LPS
# Protocol: as §2
# [5] = tested on: nitrate (an indicator of NO); assay: Plasma nitrate in LPS-treated rats; assay type: in vivo, Wistar-Kyoto (WKY) rats; details: 5 mg/Kg iv 30 min before LPS (10 mg/Kg iv); 6 h after LPS
# Protocol: as §1, with “Prior to (i.e., at time 0) and every hour after vehicle or LPS, 0.5 mL of blood was taken to measure the changes in cytokine tumor necrosis factor-α (TNF-α), interleukin-10β (IL-10), and nitrate (an indicator of NO) (Yen, M. H. et al., Shock 14, 60-67, 2000). Any blood withdrawn was immediately replaced by the injection of an equal volume of saline (i.v.) in order to maintain the blood volume. The drug was administered i.v. 30 min. prior to and 30 min. after the injection of LPS.” left out
# Fifty microliters of plasma previously kept in −20° C. freezer was thawed and de-proteinized by incubating with 95% ethanol (4° C.) for 30 min. […] The amounts of nitrate in the plasma ([…]) were measured by adding a reducing agent (0-8% VCl3 in 1N HCl) to the purge vessel to convert nitrate to NO, which was stripped from the plasma by using a helium gas purge. […] Nitrate concentrations were calculated by comparison with standard solutions of sodium nitrate (Sigma Chemical Co., St. Louis, Mo.). […]
# [6] = tested on: TNF-α; assay: Plasma TNF-α (ELISA) in LPS-treated rats; assay type: in vivo, Wistar-Kyoto (WKY) rats; details: 5 mg/Kg iv 30 min before LPS (10 mg/Kg iv); measurement taken at 2 h
# Protocol: as §1
# Blood samples (0.3 mL) for the measurement of TNF-α level in the plasma were obtained at 0, 60, 120, 180, and 360 min. after the injection of saline or LPS. At 60 and 360 min. after the injection of saline or LPS, the volume of blood sample taken from the animals was 0.5 mL instead of 0.3 mL for performing the measurement of IL-10 in addition to TNF-α. These samples were collected from a catheter placed in the carotid artery and were centrifuged at 7200 g for 3 min. to obtain the plasma for measuring the levels of TNF-α, IL-10, and nitrate (as described below). The plasma samples (100 μL) were diluted 1:2, and TNF-α was measured in duplicate with an enzyme-linked immunoadsorbent assay (ELISA) kit (Genzyme Co., Cambridge, Mass.), and the amounts of IL-10 in the plasma (100 μL) were measured by ELISA kit (Endogen Inc., Boston, Mass.), as described previously (Yen, M. H. et al.: Biochem. Biophys. Res. Commun. 228:459-466 (1996)).
# Compounds, XXV and XXVI (shown below), were tested according to the foregoing protocols. In the following tables, XXV or XXVI (5 mg/Kg, iv) was injected 30 min before LPS treatment (10 mg/Kg, iv) unless otherwise indicated. In all experiments, at least six rats were tested. All measurements were performed 6 h after LPS injection unless otherwise indicated. […]
# [7] = tested on: SGOT; assay: Serum glutamic oxaloacetic transaminase (SGOT) in LPS-treated rats; assay type: in vivo; details: for SGOT % Inhibition / SGOT, LPS + Compound: 6 h after LPS
# Protocol: as §1
# (§3) 10 μl of serum was taken out at 0 and 6 hr intervals and were added to slides of GOP and GTP and then placed in DRI-CHEM 3000 (Colorige Tric Analyzer; FUJIFILM; Tokyo, Japan.
# as §2
# [8] = tested on: SGPT; assay: Serum glutamic pyrate transaminase (SGPT) in LPS-treated rats; assay type: in vivo; details: for SGPT, LPS + Compound / SGPT % Inhibition: 6 h after LPS
# Protocol: as §1, §3, §2
# [9] = tested on: Blood urea nitrogen; assay: Blood urea nitrogen (BUN) in LPS-treated rats; assay type: in vivo; details: 5 mg/Kg iv 30 min before LPS (10 mg/Kg iv); 6 h after LPS
# Protocol: as §1, with “Any blood withdrawn was immediately replaced by the injection of an equal volume of saline (i.v.) in order to maintain the blood volume. The drug was administered i.v. 30 min. prior to and 30 min. after the injection of LPS.” left out
# (§4) BUN and Creatinine levels were measured at 0 and 6 hr after injection of saline or LPS by “DRI-Chemical slide” (Fujifilm Co., dropping 10 μL plasma onto the slide with micropipette). […]
# [10] = tested on: Creatinine; assay: Plasma creatinine in LPS-treated rats; assay type: in vivo; details: 5 mg/Kg iv 30 min before LPS (10 mg/Kg iv); 6 h after LPS
# Protocol: as §1, with “Any blood withdrawn was immediately replaced by the injection of an equal volume of saline (i.v.) in order to maintain the blood volume. The drug was administered i.v. 30 min. prior to and 30 min. after the injection of LPS.” left out
# as §4
# [11] = tested on: ICR mice injected with LPS; assay: Survival study after LPS; assay type: in vivo
# Protocol: Survival studies were performed in ICR mice (28-35 g), whose stock originated from the Institute of Cancer Research of National Institute of Health in U.S.A. They were purchased from the National Animal Center (Taipei, R.O.C., Taiwan). LPS [60 mg/kg intraperitoneally (i.p.)] was injected in the presence of vehicle or drugs and survival was monitored every 6 hours until 36 hours, Different groups of animals received vehicle (saline) together with LPS (n=20) or LPS plus compounds (2.5 mg/kg at time 0 and 6 hours after LPS, n=20).
# All values in the figures and text are expressed as mean. SEM of n observations, where n represents the number of animals studied. Statistical evaluation was performed by using analysis of variance (ANOVA) followed by a multiple comparison test (Scheffe's test), the IL-10 level and the neutrophil infiltration index which were analyzed by unpaired Student's t test. The chi-square test was used for determining the significant differences in the survival rate between control and drug-treated groups. A P value of less than 0.05 was considered to be statistically significant.
# [12] = tested on: lung tissues of rats receiving lipopolysaccharide (LPS); assay: Histological study of lung tissue after LPS
# Source text: Lungs and livers were obtained from surviving mice in each group after the survival study and these tissues were fixed in Carson-Millonig's solution for histopathological examination as described previously in Chen, A. et al. Lab. […] The fixed lung and liver tissues were dehydrated in graded ethanol and embedded in paraffin. Three-micron sections were stained with the hematoxylin and eosin reagent for light microscopy. […] This histological alteration was quantitatively analyzed as an index on the severity of tissue injury. This index was a neutrophil infiltration index which was determined by counting the numbers of neutrophils in 10 randomly selected high power fields. The index was expressed as the mean of these 10 numbers±standard error of the mean (SEM)/high power field.
# [13] = 5 mg/Kg iv 30 min before LPS (10 mg/Kg iv)
# [14] = 5 mg/Kg iv 30 min before LPS (10 mg/Kg iv), XXVI value not statistically significant
# [15] = 6 hours after LPS, pretreatment (30 min before LPS; 5, 10 mg/kg) and post-treatment (30 min after LPS; 10 mg/kg), p<0.05
# Sequence of σ1 (Q99720 whole entry): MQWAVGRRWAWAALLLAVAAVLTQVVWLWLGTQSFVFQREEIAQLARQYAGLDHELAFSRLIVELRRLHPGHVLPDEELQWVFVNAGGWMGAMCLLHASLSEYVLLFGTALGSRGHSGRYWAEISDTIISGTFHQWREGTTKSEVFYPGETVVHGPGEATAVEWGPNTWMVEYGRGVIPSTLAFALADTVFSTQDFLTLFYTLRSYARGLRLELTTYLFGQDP
structure (smiles),measurement,setting,value
Br.C=CCN1CC[C@]23CCCC[C@H]2[C@H]1Cc1ccc(OC)cc13,melting point,,190 to 192 °C
Br.COc1ccc2c(c1)[C@@]13CCCC[C@H]1[C@@H](C2)N(Cc1ccccc1)CC3,melting point,,185 to 186 °C
Br.COc1ccc2c(c1)[C@@]13CCCC[C@H]1[C@@H](C2)N(Cc1ccc(F)cc1)CC3,melting point,,226 to 228 °C
C=CCN1CCC2(C)c3cc(O)ccc3CC1C2C (stereo not shown) [N-allylnormetazocine],affinity at σ1,[1],relatively poor affinity
same,σ1/σ2 ratio,[1]; selectivity ratio,< 100
C=CCCCCN1CCC2(C)c3cc(O)ccc3CC1C2C (stereo not shown) [N-hex-5-enyl],pKi,[1],9.00
same,σ2/σ1,[1]; selectivity ratio,750
C=CCCCN1CCC2(C)c3cc(O)ccc3CC1C2C (stereo not shown) [N-pent-4-enyl],pKi,[1],8.70
same,σ2/σ1,[1]; selectivity ratio,1250
COc1ccc2c(c1)[C@]13CCCCC1[C@H](C2)N(C)CC3 (stereo partly shown) [XXVI],MAP % Protection,[2],100%
same,"MAP, LPS + Compound",[2],105 mmHg
same,Heart Rate % Protection,[3],36%
same,"Heart Rate, LPS + Compound",[3],420 beats/min
same,Superoxide % Inhibition,[4]; [13],68%
same,"Superoxide, LPS + Compound",[4]; [13],8200 relative units
same,Nitrate % Inhibition,[5],75%
same,"Nitrate, LPS + Compound",[5],75 µM
same,TNF-α % Inhibition,[6],74%
same,"TNF-α, LPS + Compound",[6],510 ng/mL
same,SGOT % Inhibition,[7]; [13],53%
same,"SGOT, LPS + Compound",[7]; [13],158 U/L
same,"SGPT, LPS + Compound",[8]; [13],36 U/L
same,SGPT % Inhibition,[8]; [14],100^3%
same,Blood urine nitrogen % of Inhibition,[9],47%
same,"Blood urine nitrogen, LPS + Compound",[9],45 mg/dL
same,Creatinine % of Inhibition,[10],60%
same,"Creatinine, LPS + Compound",[10],0.40 mg/dL
same,% of Protection (survival at 14 h),[11]; 14 h after LPS,100%
same,"% of Survival at 14 h, LPS + Compound","[11]; 14 h after LPS, method: LPS 60 mg/kg i.p., compound 2.5 mg/kg at 0 and 6 h",100%
same,% of Protection (survival at 18 h),[11]; 18 h after LPS,40%
same,"% of Survival at 18 h, LPS + Compound","[11]; 18 h after LPS, method: LPS 60 mg/kg i.p., compound 2.5 mg/kg at 0 and 6 h",40%
same,Lung tissue morphology after compound alone,"[12]; injections of compound alone, no LPS, n=2, FIG. 5 (400×) and FIG. 6 (40×)",morphologically relatively normal lung tissues
same,PMN infiltration in lung caused by LPS,"[12]; pretreatment with compound, high power (400×) light microscope, FIG. 5",improved
same,Thickness of alveolar wall with interstitial congestion and edema caused by LPS,"[12]; pretreatment with compound, low power (40×) light microscope, FIG. 6",improved
O=C1CC[C@@]2(O)[C@@H]3Cc4ccc(O)c5c4C2(CCN3CC2CC2)[C@H]1O5 [XXV],MAP % Protection,[2],33%
same,"MAP, LPS + Compound",[2],80 mmHg
same,Heart Rate % Protection,[3],>90%
same,"Heart Rate, LPS + Compound",[3],410 beats/min
same,Superoxide % Inhibition,[4]; Post-treatment with 10 mg/Kg,69%
same,"Superoxide, LPS + Compound",[4]; Post-treatment with 10 mg/Kg,15720 relative units
same,Superoxide % Inhibition,[4]; Pretreatment with 10 mg/Kg,85%
same,"Superoxide, LPS + Compound",[4]; Pretreatment with 10 mg/Kg,11866 relative units
same,TNF-α % Inhibition,[6],50%
same,"TNF-α, LPS + Compound",[6],180 ng/mL
same,SGOT % Inhibition,[7]; [13],60%
same,"SGOT, LPS + Compound",[7]; [13],192 U/L
same,Effect on SGOT after LPS,[7]; [15],significant decrease
same,SGOT % Inhibition,[7]; Post-treatment with 10 mg/Kg,76%
same,"SGOT, LPS + Compound",[7]; Post-treatment with 10 mg/Kg,192 U/L
same,SGOT % Inhibition,[7]; Pretreatment with 10 mg/Kg,94%
same,"SGOT, LPS + Compound",[7]; Pretreatment with 10 mg/Kg,192 U/L
same,"SGPT, LPS + Compound",[8]; [13],61.6 U/L
same,SGPT % Inhibition,[8]; [14],78%
same,Effect on SGTP after LPS,[8]; [15],significant decrease
same,SGPT % Inhibition,[8]; Post-treatment with 10 mg/Kg,82%
same,"SGPT, LPS + Compound",[8]; Post-treatment with 10 mg/Kg,59.6 U/L
same,SGPT % Inhibition,[8]; Pretreatment with 10 mg/Kg,94%
same,"SGPT, LPS + Compound",[8]; Pretreatment with 10 mg/Kg,53.8 U/L
